Patent publication US20230257383A1, “COMPOUND SERVING AS BTK INHIBITOR, PREPARATION METHOD THEREFOR, AND USE THEREOF” (CHENGDU HYPERWAY PHARMACEUTICALS CO., LTD., priority 2020, published 2023)
Like-named read-outs stand apart in the source and are kept apart here.

Tests used:
BT474 cell proliferation = assay: In vitro cell proliferation inhibitory activity test (CTG), BT474; type: cell-based; settings: Homo sapiens, BT-474, BT474 cell proliferation
Procedure: (§1) Test Example 4: In Vitro Cell Proliferation Inhibitory Activity Test
(§2) Cells were cultured in 1640 medium, added with 10% inactivated FBS and 1% double antibiotics, and cultured at 37° C. and 5% CO2.
(§3) (1) Cells were routinely cultured until the cell density was 80%-90%, and the cells were harvested when their number reached the requirement.
(§4) (2) Cells were resuspended with corresponding culture medium, counted, and prepared into cell suspension at appropriate density.
(§5) (3) The cell suspension was added to a 96-well plate, 100 μL per well.
(§6) (4) Cells were cultured overnight in a 37° C., 5% CO2 incubator.
(§7) (1) The compounds to be tested were diluted with DMSO to make a stock solution with a final concentration of 20 mM for later use.
(§8) (2) The stock solution was diluted 10 times from 20 mM to 2 mM with DMSO, and then diluted 3 times from 2 mM to 9 concentrations.
(§9) (3) The blank control wells were cells plus 0.5% DMSO, as high-reading control wells.
(§10) (4) Wells with no cells and only medium were used as low-reading control wells.
(§11) 4: Cell treatment with compound
(§12) (1) 24 h after the cells were plated, the compounds acted alone, and 99 μL of growth medium was added to each well, followed by 1 μL of the compound prepared in step 3. The plate was shaken gently to mix uniformly, and then placed in a 37° C., 5% CO2 incubator.
(§13) (2) The cell plate was placed in an incubator for 72 h.
(§14) 5: Detection by CTG method
(§15) (1) The cell plate to be tested was placed at room temperature for 30 min, and 100 μL of medium was discarded from each well.
(§16) (2) 100 μL of CTG reagent (CelltiterGlo kit) was added to each well, placed on a fast shaker for 2 min, and stood at room temperature in the dark for 30 min.
(§17) (3) The chemiluminescent signal value was read with the Envision instrument.
(§18) IC50 was calculated by using GraphPad Prism 8 software. The IC50 (half inhibitory concentration) of the compound was derived using the following nonlinear fitting formula, and the results are shown in the following table:
(§19) Y=Bottom+(Top−Bottom)/(1+10^((Log IC50−X)×HillSlope))
(§20) X: log value of compound concentration, Y: inhibition rate (% inhibition)
(§21) Inhibition rate (% inhibition)=(reading of high-reading control well-reading of compound well)/(reading of high-reading control well-reading of low-reading control well)×100

HER2 kinase = HER2 kinase (Homo sapiens, UniProt P04626); assay: HER2 kinase activity test (HTRF); type: biochemical
Sequence of HER2 kinase (P04626 23-1255): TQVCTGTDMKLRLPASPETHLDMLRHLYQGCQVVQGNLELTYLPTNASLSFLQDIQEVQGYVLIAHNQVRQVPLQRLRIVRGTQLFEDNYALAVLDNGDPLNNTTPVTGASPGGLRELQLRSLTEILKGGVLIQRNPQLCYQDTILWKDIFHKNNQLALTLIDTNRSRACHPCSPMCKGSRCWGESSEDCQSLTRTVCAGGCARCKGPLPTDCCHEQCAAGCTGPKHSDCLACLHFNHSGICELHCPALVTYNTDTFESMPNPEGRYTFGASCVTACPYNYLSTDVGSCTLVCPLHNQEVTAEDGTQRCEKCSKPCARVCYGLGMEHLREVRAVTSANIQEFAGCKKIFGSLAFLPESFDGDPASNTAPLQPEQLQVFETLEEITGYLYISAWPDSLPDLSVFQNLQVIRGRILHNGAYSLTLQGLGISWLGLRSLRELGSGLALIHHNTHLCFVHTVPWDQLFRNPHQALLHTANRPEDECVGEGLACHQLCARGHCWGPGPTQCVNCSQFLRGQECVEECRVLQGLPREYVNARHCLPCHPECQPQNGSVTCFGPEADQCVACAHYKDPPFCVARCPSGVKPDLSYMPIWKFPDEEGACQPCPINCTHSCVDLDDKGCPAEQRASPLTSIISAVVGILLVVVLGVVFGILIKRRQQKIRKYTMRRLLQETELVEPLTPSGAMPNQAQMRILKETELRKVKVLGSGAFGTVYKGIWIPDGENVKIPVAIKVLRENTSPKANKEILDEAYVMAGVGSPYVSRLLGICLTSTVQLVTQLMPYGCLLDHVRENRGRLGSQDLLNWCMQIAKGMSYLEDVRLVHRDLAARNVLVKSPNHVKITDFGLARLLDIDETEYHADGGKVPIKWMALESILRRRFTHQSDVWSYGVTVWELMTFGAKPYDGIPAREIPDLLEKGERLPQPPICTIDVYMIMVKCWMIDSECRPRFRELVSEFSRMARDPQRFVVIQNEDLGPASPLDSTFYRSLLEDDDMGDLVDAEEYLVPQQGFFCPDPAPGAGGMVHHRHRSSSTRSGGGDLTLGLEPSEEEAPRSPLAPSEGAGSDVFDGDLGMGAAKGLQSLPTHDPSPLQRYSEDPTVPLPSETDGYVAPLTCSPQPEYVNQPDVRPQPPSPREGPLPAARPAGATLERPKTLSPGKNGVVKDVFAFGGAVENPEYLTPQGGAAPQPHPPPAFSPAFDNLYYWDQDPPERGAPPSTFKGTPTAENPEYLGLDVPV
Procedure: Test Example 5: HER2 Kinase Activity Test
1. Her2 Kinase test steps
2) 100 nl of the diluted compound working solution was transferred into each well of a reaction plate (784075, Greiner) by an Echo 550 liquid hander. The reaction plate was sealed with a sealing film and centrifuged at 1000 g for 1 min.
3) 1 ng/μL Her2 kinase solution was prepared with 1× kinase reaction buffer.
4) 5 μL of the kinase solution prepared above was added to each well of the reaction plate. The plate was sealed with a sealing film, centrifuged at 1000 g for 1 min, and placed at room temperature for 10 min.
5) A mixture of 2× kinase substrate and ATP was prepared by using 1× kinase reaction buffer, and the 2× Her2 kinase substrate was 2 μM TK-substrate-biotin and 4 μM ATP
6) 5 μL of the mixture of 2× TK-substrate-biotin and ATP was added to the reaction plate, centrifuged at 1000 g for 30 seconds to start the reaction.
7) Her2 kinase test was performed at room temperature for 50 min of reaction.
9) 10 μL of the mixture of Sa-XL 665 and TK-antibody-Cryptate was added to each well, centrifuged at 1000 g for 30 seconds, and reacted at room temperature for 1 h.
10) The fluorescence signals at 615 nm (Cryptate) and 665 nm (XL665) were read by Envision 2104.
1) The percentage inhibition was calculated as follows: […]
Ratiopositive control: average value of Ratio 665/615 nm of all positive control wells in the plate.
Rationegative control: average value of Ratio 665/615 nm of all negative control wells in the plate.
2) Calculation of IC50 and fitting of dose-effect curve of compound:
The IC50 of the compound was derived using the following nonlinear fitting formula with GraphPad 6.0.
Y=Bottom+(Top−Bottom)/(1+10^((Log IC50−X)×HillSlope)).
X: log value of compound concentration; Y: percentage inhibition of compound

[1] = Blood-brain barrier permeability test, oral, SD rats; type: in vivo; settings: rat, oral 10 mg/kg single dose; for concentration at 1 h / Kp at 1 h: time point 1 h; for concentration at 2 h / Kp at 2 h: time point 2 h; for concentration at 4 h / Kp at 4 h: time point 4 h
Procedure: Test Example 6: Blood-Brain Barrier Permeability Test
Each test compound was administered orally at a single dose of 10 mg/kg to SD rats for pharmacokinetic study. Each group included 9 rats. The test compound was dissolved in 5% DMSO+10% solutol+85% saline, vortexed for 1-2 min, and ultrasonicated for 5-10 min to prepare into a colorless, transparent and clear administration solution. Animals were fasted overnight before administration. 1 h, 2 h, and 4 h after administration, three SD rats were selected from each group to take about 0.2-0.3 mL of blood through their orbit. The blood sample was placed on ice once collected, and centrifuged to separate the plasma within 15 min (centrifugation conditions: 8000 rpm, 1 min, room temperature). The collected plasma was stored at −20° C. before analysis. Immediately after blood collection, the cerebrospinal fluid and brain tissue were collected. The cerebrospinal fluid was draw out by dural puncture with a micro-sampler syringe under direct vision. Namely, about 100 μl of cerebrospinal fluid was collected with a 100 μl micro sample syringe from the rat that was anesthetized by chloral hydrate, with the head-fixed, the back hair-cut off, a transverse incision (2 cm) made at the line connecting the roots of the two ears, and the muscle layer of the neck and skull base bluntly scraped to expose the foramen magnum. The cerebrospinal fluid was stored at −20° C. before analysis. The rat then was sacrificed immediately, with its head cut off. The dissected brain tissue, with the surface capillaries peeled off, was weighed, added with 3 times the amount of cold saline, homogenized by a homogenizer for 1 min, and stored at −20° C. before analysis. 20 μL of plasma sample and brain homogenate sample was respectively added into 200 μL of working internal standard solution (the same volume of vehicle was added to the blank instead of internal standard), vortexed for 1 min, and centrifuged at 13500 rpm for 10 min. 100 μL of the supernatant was taken and analyzed by LC-MS/MS. 20 μL of the cerebrospinal fluid was added into 60 μL of working internal standard solution (the same volume of vehicle, instead of internal standard, was added to the blank), vortexed for 1 min, and centrifuged at 13500 rpm for 10 min. 50 μL of the supernatant was taken and analyzed by LC-MS/MS.

[2] = system: NCI-N87 cell proliferation; assay: In vitro cell proliferation inhibitory activity test (CTG), NCI-N87; type: cell-based; settings: Homo sapiens
Procedure: as §1, §2, §3, §4, §5, §6, §7, §8, §9, §10, §11, §12, §13, §14, §15, §16, §17, §18, §19, §20, §21

[3] = brain, read-out: Drug concentration in brain tissue
[4] = brain/plasma, read-out: Brain tissue/plasma
[5] = cerebrospinal fluid, read-out: Drug concentration in cerebrospinal fluid
[6] = cerebrospinal fluid/plasma, read-out: Cerebrospinal fluid/plasma
[7] = plasma, read-out: Plasma drug concentration

Row | SMILES | IC50 (BT474 cell proliferation) [nM] | IC50 (HER2 kinase) [nM] | concentration at 1 h [1, 3] [ng/g] | concentration at 2 h [1, 3] [ng/g] | concentration at 4 h [1, 3] [ng/g] | Kp at 1 h [1, 4] | Kp at 2 h [1, 4] | Kp at 4 h [1, 4] | concentration at 1 h [1, 5] [ng/mL] | concentration at 2 h [1, 5] [ng/mL] | concentration at 4 h [1, 5] [ng/mL] | Kp at 1 h [1, 6] | Kp at 2 h [1, 6] | Kp at 4 h [1, 6] | concentration at 1 h [1, 7] [ng/mL] | concentration at 2 h [1, 7] [ng/mL] | concentration at 4 h [1, 7] [ng/mL] | IC50 [2] [nM]
1 | Nc1nccn2c(C34CCC(CO)(CC3)OC4)nc(-c3ccc(C(F)(F)c4ccccc4Cl)cc3)c12 [Example 155] | 46.4 | 9.44 | 1520 | 1860 | 1260 | 1.21 | 1.3 | 1.19 | 292 | 374 | 220 | 0.23 | 0.26 | 0.21 | 1250 | 1430 | 1060 | 
2 | Nc1nccn2c(C34CCC(CO)(CC3)OC4)nc(-c3ccc(C(F)(F)c4cccc(Cl)c4F)cc3)c12 [Example 152] | 65.5 | 4.19 | 288 | 378 | 232 | 0.27 | 0.39 | 0.32 | 187 | 227 | 181 | 0.18 | 0.24 | 0.25 | 1060 | 961 | 715 | 43.4
3 | Cc1cc(Nc2ncnc3ccc(NC4=NC(C)(C)CO4)cc23)ccc1Oc1ccn2ncnc2c1 [Tucatinib, reference compound] | 30.2 | 3 | 26.5 | 29.5 | 24.5 | 0.013 | 0.015 | 0.013 | 19.2 | 10.4 | 14.9 | 0.009 | 0.005 | 0.008 | 2030 | 1940 | 1900 | 26
4 | Nc1nccn2c(C3CCC(CO)OC3)nc(-c3ccc(C(F)(F)c4ccccc4)cc3)c12 (single isomer, unassigned) [Example 111-P1] | 1550 |  | 1250 | 1070 | 787 | 0.62 | 0.67 | 0.59 | 66.2 | 52.3 | 41.9 | 0.033 | 0.033 | 0.031 | 2010 | 1580 | 1340 | 
5 | Nc1nccn2c(C34CCC(CO)(CC3)OC4)nc(-c3ccc(C(F)(F)c4ccccc4F)cc3)c12 [Example 145] | 40.9 | 1.69 | 643 |  | 910 | 0.39 |  | 0.53 | 59.7 |  | 74.3 | 0.036 |  | 0.044 | 1650 |  | 1710 | 37.5
6 | Nc1nccn2c(C34CCC(CO)(CC3)OC4)nc(-c3ccc(C(F)(F)c4ccccc4)cc3)c12 [Example 125] | 340 |  | 1340 | 1170 | 1060 | 0.91 | 1.03 | 0.84 | 34.1 | 30.4 | 29.6 | 0.023 | 0.027 | 0.024 | 1470 | 1130 | 1260 | 
